Assay: Compound was tested in vitro for binding affinity for 5-hydroxytryptamine 1C receptor

SMILES | Ki
Cc1ccc2c(c1O)C[C@@H](C1CCCCC1)O[C@H]2CN | 0.058 µM
NC[C@@H]1O[C@H](c2ccccc2)Cc2c1ccc(Br)c2O | 0.2 µM

From BindingDB's records for doi:10.1021/jm00114a002 (Abbott Laboratories, 1991)
